Measurements: ChEMBL document CHEMBL1146654, “3-(7-Azaindolyl)-4-arylmaleimides as potent, selective inhibitors of glycogen synthase kinase-3” (Bioorg Med Chem Lett, 2004)

Legend:
[1] = molecular target: Casein kinase II (Homo sapiens) (UniProt P67870+P68400+P19784); experiment: Inhibition of Casein kinase 2; assay type: protein-complex assay; parameters: scale not given: the % may be the effect or the level left
[2] = molecular target: Cyclin-dependent kinase 2/cyclin A (Homo sapiens) (UniProt P24941+P20248+P78396); experiment: Inhibition of Cyclin-dependent kinase 2-cyclin A; assay type: protein-complex assay; parameters: scale not given: the % may be the effect or the level left
[3] = molecular target: Cyclin-dependent kinase 1/cyclin B (Homo sapiens) (UniProt P06493+P14635+Q8WWL7+O95067); experiment: Inhibition of cyclin-dependent kinase 1-cyclin B; assay type: protein-complex assay; parameters: scale not given: the % may be the effect or the level left
[4] = molecular target: Ribosomal protein S6 kinase alpha-5 (Homo sapiens, UniProt O75582); experiment: Inhibition of MSK-1 kinase; parameters: scale not given: the % may be the effect or the level left
[5] = molecular target: Mitogen-activated protein kinase 1 (Homo sapiens) (UniProt P28482); experiment: (§1) Inhibition of mitogen-activated protein kinase 2; parameters: scale not given: the % may be the effect or the level left
Mitogen-activated protein kinase 1 (Homo sapiens), sequence (P28482 whole entry): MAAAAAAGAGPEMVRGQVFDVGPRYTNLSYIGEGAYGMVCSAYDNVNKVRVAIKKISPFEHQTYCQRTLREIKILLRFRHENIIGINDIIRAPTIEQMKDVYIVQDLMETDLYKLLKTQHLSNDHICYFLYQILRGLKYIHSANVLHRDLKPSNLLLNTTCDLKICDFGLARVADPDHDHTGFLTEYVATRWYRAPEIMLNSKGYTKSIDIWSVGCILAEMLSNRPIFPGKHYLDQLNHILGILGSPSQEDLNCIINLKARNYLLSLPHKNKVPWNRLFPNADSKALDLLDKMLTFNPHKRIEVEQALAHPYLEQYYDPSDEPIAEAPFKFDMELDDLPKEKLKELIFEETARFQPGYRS

[6] = molecular target: Mitogen-activated protein kinase 1 (Mus musculus) (UniProt P63085); experiment: as §1; parameters: scale not given: the % may be the effect or the level left
Mitogen-activated protein kinase 1 (Mus musculus), sequence (P63085 whole entry): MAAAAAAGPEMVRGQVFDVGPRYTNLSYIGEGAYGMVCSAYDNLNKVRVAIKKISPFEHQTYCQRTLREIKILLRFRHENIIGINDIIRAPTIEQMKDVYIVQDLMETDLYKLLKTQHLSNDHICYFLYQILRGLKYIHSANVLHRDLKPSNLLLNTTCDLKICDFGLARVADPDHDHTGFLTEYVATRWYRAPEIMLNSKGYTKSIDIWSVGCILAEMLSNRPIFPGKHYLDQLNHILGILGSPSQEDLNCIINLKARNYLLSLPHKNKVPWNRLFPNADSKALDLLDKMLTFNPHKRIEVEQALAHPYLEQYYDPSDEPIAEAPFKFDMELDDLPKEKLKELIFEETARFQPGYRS

[7] = molecular target: T1, Dual specificity mitogen-activated protein kinase kinase 4 (Mus musculus) (UniProt P47809); experiment: Inhibition of Mitogen activated protein kinase kinase 4; parameters: scale not given: the % may be the effect or the level left
T1 sequence (whole entry): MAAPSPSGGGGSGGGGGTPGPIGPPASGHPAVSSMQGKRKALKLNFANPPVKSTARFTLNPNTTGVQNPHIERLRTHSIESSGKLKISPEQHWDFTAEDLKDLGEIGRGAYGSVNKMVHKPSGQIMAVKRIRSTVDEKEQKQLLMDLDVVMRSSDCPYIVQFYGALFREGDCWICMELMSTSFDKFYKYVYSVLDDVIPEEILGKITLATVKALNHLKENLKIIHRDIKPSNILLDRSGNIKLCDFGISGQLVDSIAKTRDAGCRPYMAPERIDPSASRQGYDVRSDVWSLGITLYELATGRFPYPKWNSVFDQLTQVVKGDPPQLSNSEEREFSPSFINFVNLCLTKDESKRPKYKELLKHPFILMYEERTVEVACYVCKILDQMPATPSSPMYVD

[8] = molecular target: T2, Dual specificity mitogen-activated protein kinase kinase 6 (Homo sapiens) (UniProt P52564); experiment: Inhibition of Mitogen activated protein kinase kinase 6; parameters: scale not given: the % may be the effect or the level left
T2 sequence (whole entry): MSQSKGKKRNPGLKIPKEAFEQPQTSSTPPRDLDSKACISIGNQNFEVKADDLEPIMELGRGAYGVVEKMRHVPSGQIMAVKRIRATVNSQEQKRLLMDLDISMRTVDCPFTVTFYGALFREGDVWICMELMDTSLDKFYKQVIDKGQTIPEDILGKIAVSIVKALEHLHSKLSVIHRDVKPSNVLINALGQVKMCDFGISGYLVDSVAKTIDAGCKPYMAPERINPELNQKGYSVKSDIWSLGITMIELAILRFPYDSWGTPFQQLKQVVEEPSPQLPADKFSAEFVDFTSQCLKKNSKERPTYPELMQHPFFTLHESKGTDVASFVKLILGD

[9] = molecular target: Mitogen-activated protein kinase 3 (Homo sapiens) (UniProt P27361); experiment: Inhibition of compound against mitogen-activated protein kinase 1; parameters: scale not given: the % may be the effect or the level left
Homo sapiens = species on record: Homo sapiens; experiment: Inhibition of PKA; parameters: scale not given: the % may be the effect or the level left
[10] = molecular target: Protein kinase C alpha type (Homo sapiens, UniProt P17252); experiment: Inhibitory activity of 10 uM compound against protein kinase C-alpha using histone as substrate
[11] = molecular target: Platelet-derived growth factor receptor beta (Homo sapiens) (UniProt P09619); experiment: Inhibition of PDGFRbeta; parameters: scale not given: the % may be the effect or the level left
Platelet-derived growth factor receptor beta (Homo sapiens), sequence (P09619 whole entry): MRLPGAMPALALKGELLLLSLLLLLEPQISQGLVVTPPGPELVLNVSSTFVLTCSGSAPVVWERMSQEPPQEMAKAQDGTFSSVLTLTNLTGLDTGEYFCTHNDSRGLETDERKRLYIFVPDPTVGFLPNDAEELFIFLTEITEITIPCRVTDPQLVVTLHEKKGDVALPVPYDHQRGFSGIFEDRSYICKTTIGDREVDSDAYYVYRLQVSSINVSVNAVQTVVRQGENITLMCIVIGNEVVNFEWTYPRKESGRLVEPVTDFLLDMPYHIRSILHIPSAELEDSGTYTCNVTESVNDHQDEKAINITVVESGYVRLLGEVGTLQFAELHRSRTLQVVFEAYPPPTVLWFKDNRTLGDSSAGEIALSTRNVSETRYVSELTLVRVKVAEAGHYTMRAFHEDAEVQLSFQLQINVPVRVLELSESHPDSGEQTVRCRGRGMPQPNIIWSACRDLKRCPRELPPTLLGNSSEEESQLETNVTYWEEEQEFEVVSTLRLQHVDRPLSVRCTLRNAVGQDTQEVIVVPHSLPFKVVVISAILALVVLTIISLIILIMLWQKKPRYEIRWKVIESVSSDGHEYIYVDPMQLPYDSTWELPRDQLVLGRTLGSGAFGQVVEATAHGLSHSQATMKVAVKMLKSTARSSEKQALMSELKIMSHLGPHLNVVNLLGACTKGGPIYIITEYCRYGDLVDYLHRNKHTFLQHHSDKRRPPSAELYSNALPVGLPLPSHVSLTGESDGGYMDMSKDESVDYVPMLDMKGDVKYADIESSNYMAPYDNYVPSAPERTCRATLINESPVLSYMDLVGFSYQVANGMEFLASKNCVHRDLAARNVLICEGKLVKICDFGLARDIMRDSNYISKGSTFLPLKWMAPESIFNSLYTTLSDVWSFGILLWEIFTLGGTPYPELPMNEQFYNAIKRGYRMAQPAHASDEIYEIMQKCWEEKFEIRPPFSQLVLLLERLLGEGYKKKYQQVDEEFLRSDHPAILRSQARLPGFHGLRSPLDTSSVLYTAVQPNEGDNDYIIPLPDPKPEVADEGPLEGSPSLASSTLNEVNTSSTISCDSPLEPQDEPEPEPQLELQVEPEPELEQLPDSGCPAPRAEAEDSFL

[12] = molecular target: T3, Protein kinase C epsilon type (Homo sapiens) (UniProt Q02156); experiment: Inhibition of PKCepsilon; parameters: scale not given: the % may be the effect or the level left
T3 sequence (whole entry): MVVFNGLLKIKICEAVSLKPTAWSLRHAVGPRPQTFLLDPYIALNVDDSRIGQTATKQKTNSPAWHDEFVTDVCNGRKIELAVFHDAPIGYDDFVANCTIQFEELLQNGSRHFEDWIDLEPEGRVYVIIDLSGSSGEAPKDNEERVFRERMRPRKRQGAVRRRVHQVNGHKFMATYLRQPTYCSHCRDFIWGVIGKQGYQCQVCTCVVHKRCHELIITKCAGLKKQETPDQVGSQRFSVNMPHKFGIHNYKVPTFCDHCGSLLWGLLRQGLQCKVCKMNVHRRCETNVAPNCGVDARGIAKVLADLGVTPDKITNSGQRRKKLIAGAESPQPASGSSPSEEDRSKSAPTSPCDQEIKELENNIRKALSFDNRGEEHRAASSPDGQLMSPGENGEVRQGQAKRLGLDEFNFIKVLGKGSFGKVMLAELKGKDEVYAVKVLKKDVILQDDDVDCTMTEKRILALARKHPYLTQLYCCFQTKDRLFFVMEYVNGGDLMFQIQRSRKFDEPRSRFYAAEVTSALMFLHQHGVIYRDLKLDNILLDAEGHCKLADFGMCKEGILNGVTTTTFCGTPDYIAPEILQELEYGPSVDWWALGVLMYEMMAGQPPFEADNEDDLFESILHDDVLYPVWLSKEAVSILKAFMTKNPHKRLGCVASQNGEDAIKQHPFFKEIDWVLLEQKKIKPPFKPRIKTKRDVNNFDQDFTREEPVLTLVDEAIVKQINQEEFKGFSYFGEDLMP

[13] = molecular target: RAF proto-oncogene serine/threonine-protein kinase (Homo sapiens) (UniProt P04049); experiment: Inhibition of RAF proto-oncogene serine/threonine-protein kinase; parameters: scale not given: the % may be the effect or the level left
RAF proto-oncogene serine/threonine-protein kinase (Homo sapiens), sequence (P04049 whole entry): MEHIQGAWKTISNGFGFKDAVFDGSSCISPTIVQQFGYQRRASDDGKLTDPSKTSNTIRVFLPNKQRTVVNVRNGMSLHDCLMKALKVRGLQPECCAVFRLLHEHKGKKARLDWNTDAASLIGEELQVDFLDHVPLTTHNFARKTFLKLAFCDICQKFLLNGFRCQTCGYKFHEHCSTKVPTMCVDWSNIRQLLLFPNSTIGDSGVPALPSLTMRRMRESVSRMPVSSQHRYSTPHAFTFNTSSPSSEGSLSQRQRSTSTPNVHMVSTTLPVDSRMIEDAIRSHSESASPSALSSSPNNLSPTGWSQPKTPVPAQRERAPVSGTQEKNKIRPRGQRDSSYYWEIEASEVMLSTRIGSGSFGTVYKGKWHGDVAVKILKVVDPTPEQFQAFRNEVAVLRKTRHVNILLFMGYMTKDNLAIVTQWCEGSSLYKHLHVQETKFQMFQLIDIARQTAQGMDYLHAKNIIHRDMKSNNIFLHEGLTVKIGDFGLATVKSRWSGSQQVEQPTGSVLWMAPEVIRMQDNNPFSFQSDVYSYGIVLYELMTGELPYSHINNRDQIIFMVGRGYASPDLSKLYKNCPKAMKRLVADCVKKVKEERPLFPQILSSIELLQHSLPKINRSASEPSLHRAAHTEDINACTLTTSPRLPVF

[14] = molecular target: T4, Serine/threonine-protein kinase Chk1 (Homo sapiens) (UniProt O14757); experiment: Inhibition of Serine/threonine-protein kinase Chk1; parameters: scale not given: the % may be the effect or the level left
T4 sequence (whole entry): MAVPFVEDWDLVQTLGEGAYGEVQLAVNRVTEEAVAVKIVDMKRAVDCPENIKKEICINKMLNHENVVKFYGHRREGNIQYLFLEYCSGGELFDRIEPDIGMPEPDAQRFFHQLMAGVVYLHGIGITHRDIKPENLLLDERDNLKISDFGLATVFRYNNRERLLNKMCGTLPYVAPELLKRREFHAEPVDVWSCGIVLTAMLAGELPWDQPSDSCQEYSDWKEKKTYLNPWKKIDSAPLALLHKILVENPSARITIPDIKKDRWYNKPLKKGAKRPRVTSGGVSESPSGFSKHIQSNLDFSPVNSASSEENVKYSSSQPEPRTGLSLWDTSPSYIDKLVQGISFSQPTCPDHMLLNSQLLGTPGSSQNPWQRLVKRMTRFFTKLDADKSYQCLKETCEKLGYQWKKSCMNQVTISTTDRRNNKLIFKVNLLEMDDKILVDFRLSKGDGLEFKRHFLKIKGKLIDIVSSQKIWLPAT

[15] = molecular target: Ribosomal protein S6 kinase alpha-1 (Rattus norvegicus) (UniProt Q63531); experiment: Inhibition of Ribosomal S6 kinase 1; parameters: scale not given: the % may be the effect or the level left
Ribosomal protein S6 kinase alpha-1 (Rattus norvegicus), sequence (Q63531 whole entry): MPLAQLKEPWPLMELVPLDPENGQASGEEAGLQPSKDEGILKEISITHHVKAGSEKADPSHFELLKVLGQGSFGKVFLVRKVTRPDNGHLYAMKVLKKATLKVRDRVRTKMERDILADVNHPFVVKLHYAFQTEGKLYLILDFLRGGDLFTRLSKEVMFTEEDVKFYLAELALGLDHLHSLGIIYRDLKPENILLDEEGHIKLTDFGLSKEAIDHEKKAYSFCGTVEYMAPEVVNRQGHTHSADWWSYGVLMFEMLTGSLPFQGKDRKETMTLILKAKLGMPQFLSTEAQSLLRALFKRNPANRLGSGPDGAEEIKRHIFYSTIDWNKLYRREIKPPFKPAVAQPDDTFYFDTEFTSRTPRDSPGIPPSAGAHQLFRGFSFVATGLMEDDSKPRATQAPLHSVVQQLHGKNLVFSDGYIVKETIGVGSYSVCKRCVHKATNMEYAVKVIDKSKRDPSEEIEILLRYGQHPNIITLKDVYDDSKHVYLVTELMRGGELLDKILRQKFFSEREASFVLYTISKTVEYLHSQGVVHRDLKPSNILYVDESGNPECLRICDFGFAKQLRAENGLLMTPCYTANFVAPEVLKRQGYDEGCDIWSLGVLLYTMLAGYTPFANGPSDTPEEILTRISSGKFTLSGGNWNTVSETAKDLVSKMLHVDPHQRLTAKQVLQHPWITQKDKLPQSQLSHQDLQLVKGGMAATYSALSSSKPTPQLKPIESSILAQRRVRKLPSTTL

[16] = molecular target: Ribosomal protein S6 kinase (P70S6K) (Homo sapiens) (UniProt Q9UBS0+P23443); experiment: Inhibition of p70 Ribosomal protein S6 kinase; assay type: protein-complex assay; parameters: scale not given: the % may be the effect or the level left
[17] = molecular target: Tyrosine-protein kinase SYK (Homo sapiens) (UniProt P43405); experiment: Inhibition of Syk protein tyrosine kinase; parameters: scale not given: the % may be the effect or the level left
[18] = molecular target: Mitogen-activated protein kinase 14 (Homo sapiens) (UniProt Q16539); experiment: Inhibition of Stress activated protein kinase 2a; parameters: scale not given: the % may be the effect or the level left
Mitogen-activated protein kinase 14 (Homo sapiens), sequence (Q16539 whole entry): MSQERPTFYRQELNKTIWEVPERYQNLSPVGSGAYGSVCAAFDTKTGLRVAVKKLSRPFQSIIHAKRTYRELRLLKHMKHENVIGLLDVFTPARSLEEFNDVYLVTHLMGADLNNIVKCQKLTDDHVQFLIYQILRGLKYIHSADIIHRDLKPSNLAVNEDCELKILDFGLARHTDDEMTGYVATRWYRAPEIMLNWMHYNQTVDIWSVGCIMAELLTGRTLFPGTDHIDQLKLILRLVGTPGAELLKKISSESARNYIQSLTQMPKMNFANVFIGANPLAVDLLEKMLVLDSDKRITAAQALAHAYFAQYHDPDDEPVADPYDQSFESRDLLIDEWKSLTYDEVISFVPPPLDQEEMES

[19] = molecular target: Tyrosine-protein kinase Yes (Homo sapiens) (UniProt P07947); experiment: Inhibition of Yes tyrosine kinase; parameters: scale not given: the % may be the effect or the level left
Tyrosine-protein kinase Yes (Homo sapiens), sequence (P07947 2-543 limits assumed): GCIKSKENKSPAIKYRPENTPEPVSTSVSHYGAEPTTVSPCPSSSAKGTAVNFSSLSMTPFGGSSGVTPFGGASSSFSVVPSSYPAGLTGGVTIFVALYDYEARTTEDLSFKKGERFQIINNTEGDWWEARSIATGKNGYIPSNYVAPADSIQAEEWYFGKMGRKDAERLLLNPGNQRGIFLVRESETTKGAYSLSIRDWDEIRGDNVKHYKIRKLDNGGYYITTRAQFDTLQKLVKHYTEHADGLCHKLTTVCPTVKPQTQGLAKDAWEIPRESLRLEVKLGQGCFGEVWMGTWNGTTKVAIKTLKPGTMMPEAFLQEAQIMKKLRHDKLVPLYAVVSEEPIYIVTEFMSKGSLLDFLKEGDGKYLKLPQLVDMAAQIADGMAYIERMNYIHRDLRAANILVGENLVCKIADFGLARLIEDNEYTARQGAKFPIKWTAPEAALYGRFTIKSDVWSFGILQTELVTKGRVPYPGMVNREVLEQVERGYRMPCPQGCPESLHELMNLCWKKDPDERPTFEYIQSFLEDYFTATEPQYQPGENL

Mus musculus = species on record: Mus musculus; experiment: Inhibition of Abl kinase; parameters: scale not given: the % may be the effect or the level left

Activity [1] [%] | Activity [2] [%] | Activity [3] [%] | Activity [5] [%] | Activity [6] [%] | Activity [7] [%] | Activity [8] [%] | Activity [9] [%] | Activity (Homo sapiens) [%] | inhibition [10] [%] | Activity [11] [%] | Activity [12] [%] | Activity [13] [%] | Activity [14] [%] | Activity [15] [%] | Activity [16] [%] | Activity [17] [%] | Activity [18] [%] | Activity [19] [%] | Activity (Mus musculus) [%] | Structure (SMILES) | also measured
93 | 9 | 9 | 92 | 100 | 86 | 83 | 78 | 92 | < 50 | 96 | 49 | 74 | 78 | 48 | 87 | 86 | 84 | 89 | 86 | COCCCn1cc(C2=C(c3ccccc3O)C(=O)NC2=O)c2cccnc21 | Activity [4]: 57%
103 | 2 | 3 | 92 | 89 | 101 | 95 | 81 | 95 | < 50 | 93 | 54 | 92 | 95 | 38 | 82 | 88 | 109 | 42 | 91 | COc1ccccc1C1=C(c2cn(CCCNC(=O)OC(C)(C)C)c3ncccc23)C(=O)NC1=O | Activity [4]: 61%
56 | 25 | 34 | 91 | 93 | 87 | 86 | 66 | 87 | < 50 | 77 | 67 | 74 | 73 | 66 | 88 | 76 | 81 | 93 | 93 | O=C1NC(=O)C(c2cn(CCCO)c3ncccc23)=C1c1ncc(C(F)(F)F)cc1Cl | –
